Assay results: US20240238366A1, “alpha-SYNUCLEIN AGGREGATION INHIBITOR, PHARMACEUTICAL COMPOSITION FOR alpha-SYNUCLEIN DISEASE, AND USE THEREOF” (O-FORCE CO., LTD., priority 2021, published 2024)
Ends that are not written are not given here.

Columns and labels:
Syn61-84 = Syn61-84 (Homo sapiens, UniProt P37840); assay: Inhibition of aggregate formation of Syn61-84, ThT fluorescence (Example B2); type: biochemical
Experimental: Specifically, reaction solutions with the following compositions were prepared and each dispensed into wells such that the amount of the reaction solution per well was 200 μL. In the following compositions, X mmol/L peptides (aggregation inhibiting peptide solutions: YS-11 and LYZA-3) were prepared using MilliQ water, and the concentration X mmol/L was set to 1 μmol/L, […], and 100 μmol/L in the reaction solutions. […] After the reaction solutions were incubated at 37° C. for 24 hours, 10 μL of 2 mmol/L ThT was added per well, and the fluorescence intensity was measured using a measurement device (product name: Cytation5, manufactured by BioTek) (n=3). The measurement wavelengths were set such that the excitation wavelength (ex) was 444 nm and the fluorescence wavelength (em) was 480 nm. As a control, a reaction solution to which water was added instead of the aggregation inhibiting peptides (YS-11 and LYZA-3) was also measured in the same way.

[1] = test system: Parkinson's disease model mice; assay: Y-maze test in Parkinson's disease model mice produced with Syn61-84 (Example B4); type: in vivo; details: Day 74; 4 μL of 1 mmol/L inhibiting peptide on Day 56 to Syn61-84 mice
Experimental: (§1) As a control, a saline solution (Saline) was used.
(§2) The aggregation inhibiting peptide was not administered to the Saline administration group (n=3).
(§3) The short-term memory was evaluated through a Y-maze test on Day 14, Day 56, and Day 74, and the motor function was evaluated through a Rota-Rod test on Day 21, Day 55, Day 63, and Day 70. […] The Rota-Rod test was conducted using a rotor-rod device for mice (product name: MK-670, manufactured by Muromachi Kikai Co., Ltd.), with the rotational speed of the rotor set at 10 or 20 rpm, and the time until a mouse on the rotating rotor fell was measured.

Syn61-84 aggregates = Syn61-84 aggregates (Homo sapiens, UniProt P37840); assay: Dissociation of Syn61-84 aggregates, ThT fluorescence (Example B3); type: biochemical; details: peptide 0.1, 1, 10, 100 μmol/L; 0.1 mM preformed Syn61-84 aggregates; 37° C. 24 hours
Experimental: Then, reaction solutions with the following compositions were prepared and each dispensed into wells such that the amount of the reaction solution per well was 200 μL, and, after the reaction solutions were incubated at 37° C. for 24 hours, 10 μL of 2 mmol/L ThT was added per well, and the fluorescence intensity was measured using a measurement device (product name Cytation5, manufactured by BioTek) (n=3). The measurement wavelengths were set such that the excitation wavelength (ex) was 444 nm and the fluorescence wavelength (em) was 480 nm. In the following compositions, X mmol/L peptides (aggregation inhibiting peptides: YS-11 and LYZA-3) were prepared using MilliQ water, and the concentration X mmol/L was set to 0.1 μmol/L, 1 μmol/L, 10 μmol/L, and 100 μmol/L in the reaction solutions. As a control, a reaction solution to which water was added instead of the peptide YS-11 and the peptide LYZA-3 was also measured in the same way.

[2] = test system: Parkinson's disease model mice; assay: Rota-Rod test in Parkinson's disease model mice produced with Syn61-84 (Example B4); type: in vivo
Experimental: as §1, §2, §3

[3] = test system: mouse neuroblastoma (Neuro2a) cells; assay: Cell viability by WST-8 method after addition of incubated reaction solutions (Example B6); type: cell-based; details: reaction solution containing only the aggregation inhibiting peptide
Experimental: Then, reaction solutions with the following compositions were prepared using these solutions. The reaction solutions were incubated at 37° C. for 24 hours.
Meanwhile, 0.15 mL of medium per well was placed in the wells of a 96-well plate, and mouse neuroblastoma (Neuro2a) cells were seeded to be 2.66×10^4 cells per well. After incubation at 37° C. for 24 hours, 50 μL of each reaction solution after the incubation was added per well and further incubated at 37° C. for 24 hours. The cell viability (%) was then measured for each well by the WST-8 method.

[4] = Solubility in aqueous solvent, visual check for precipitation; type: physicochemical; details: room temperature
Experimental: For each of the example peptides (Syn FPs) and the comparative example peptides, a 1 mmol/L peptide solution was prepared using MilliQ water as an aqueous solvent.
Each peptide was dissolved in a saline solution to prepare a 1 mmol/L sample solution.

## YSNFNTDY (aggregation inhibitor peptide) [LYZA-3]
Syn61-84; comparison between FIGS. 4(A) and 4(B)
  aggregation inhibition ability compared at the same concentration (formation of aggregates): greater aggregation inhibition ability than the peptide YS-11
Syn61-84; peptide 1 μmol/L, 100 μmol/L, 0.1 mM Syn61-84, 37° C. 24 hours
  fluorescence intensity (ThT) compared with the control (Syn61-84): decreased in a concentration-dependent manner
[1]
  alternation rate (Y-maze) compared with Saline administration group: increase in the alternation rate
Syn61-84 aggregates
  fluorescence intensity (ThT) compared with the control (Syn61-84), dissociation of aggregates: fluorescence intensity decreased
[2]; 10 rpm, RR-3 and RR-4 after inhibiting peptide on Day 56
  spent time (Rota-Rod) at 10 rpm: significant increase
[2]; 10 rpm, RR-4
  spent time (Rota-Rod) at 10 rpm versus Saline administration group: longer than that of the Saline administration group
[2]; RR-3 and RR-4, after inhibiting peptide on Day 56 to Syn61-84 mice
  spent time (Rota-Rod): increase in the spent time

## RETLVYLTHLD [YS-11]
[3]
  cell viability (control taken as 100%): no effect on the cell viability

## VVTGVTAVAQKTVEG [Syn70-84, reference compound]
[4]; 1 mmol/L in saline solution
  solubility (visual precipitation): No precipitation

## α-synuclein [full-length Syn]
[4]; 1 mmol/L in MilliQ water
  solubility (visual precipitation): precipitation of Syn was immediately visible
